The results in this text go back to patent US20200360455A1 (priority 2018, published 2020).

Molecules are shown by their SMILES.

This test concerns Old mice. The test is described as follows: Wire hang test. It counts as in vivo, mouse. The note with it: creatine 120 mg/kg. On the procedure:
The test was performing using a wire having a diameter of 2 mm installed at a height of 25 cm. Each mouse was placed on the wire using only the front legs, and the time of hanging without falling was measured. The time when the mouse was suspended and then dropped was measured and the test was conducted for a maximum of 120 seconds. In this way, each mouse was repeated 3 times at approximately 20 minute intervals. The results of each mouse were analyzed for the average value of the first and longest hanging time in three trials. […] In addition, creatine 120 mg/kg (creatine-120) was administered to mice as a positive control, and the test was conducted under the same conditions.

For the compound `CN(CC(=O)O)C(=N)N` [creatine], the “wire hang effect of positive control vs aging mouse group” value is “more effective than the aging mouse group”.
